The text below walks through data of US20020169101A1, “Treatment of sexual dysfunction” (priority 1999, published 2002).

For orientation: IC50 means the concentration at which inhibition is half-maximal. Low values mean greater potency in that assay, high ones weaker potency in that assay.

One experiment deals with T1, human GRP receptor (BB2) (Homo sapiens, UniProt P30550).
T1 construct: expressed in transfected cells; membranes prepared from the cells
Put plainly: BB2 binding assay ([125I][Tyr4]bombesin displacement, CHO-K1 membranes). As to the method:
(§1) In the following experiments, measurement of BB1 and BB2 binding was as follows. CHO-K1 cells stably expressing cloned human NMB (for (BB1 assay) and GRP receptors (for BB2 assay) were routinely grown in Ham's F12 culture medium supplemented with 10% foetal calf serum and 2 mM glutamine. For binding experiments, cells were harvested by trypsinization, and stored frozen at −70° C. in Ham's F12 culture medium containing 5% DMSO until required. On the day of use, cells were thawed rapidly, diluted with an excess of culture medium, and centrifuged for 5 minutes at 2000 g. Cells were resuspended in 50 mM Tris-HCl assay buffer (pH 7.4 at 21° C., containing 0.02% BSA, 40 μg/mL bacitracin, 2 μg/mL chymostatin, 4 μg/mL leupeptin, and 2 μM phosphoramidon), counted, and polytronned (setting 5, 10 sec) before centrifuging for 10 minutes at 28,000 g. The final pellet was resuspended in assay buffer to a final cell concentration of 1.5×10^5/mL. For binding assays, […] aliquots of membranes were incubated with [^125I][Tyr^4]bombesin (<0.1 nM) in the presence and absence of test compounds (final assay volume 250 μL) for 60 minutes and 90 minutes for NMB and GRP receptors, respectively. Nonspecific binding was defined by 1 μM bombesin. Assays were terminated by rapid filtration under vacuum onto Whatman GF/C filters presoaked in 0.2% PEI for >2 hours, and washed 50 mM Tris-HCl (pH 6.9 at 21° C.; 6×1 mL). Radioactivity bound was determined using a gamma counter.
(§2) All competition data was analysed using nonlinear regression utilizing iterative curve-plotting procedures in Prism® (GraphPad Software Inc., San Diego, USA). IC50 values were corrected to Ki values using the Cheng-Prusoff equation (Cheng Y., Prusoff W. H., Biochem. Pharmacol. 22: 3099-3108, 1973). obtained are listed in Table 1.

For the next experiment, the target named is T2, human NMB receptor (BB1) (Homo sapiens, UniProt P28336).
T2 construct: expressed in transfected cells; membranes prepared from the cells
T2 sequence (P28336 whole entry): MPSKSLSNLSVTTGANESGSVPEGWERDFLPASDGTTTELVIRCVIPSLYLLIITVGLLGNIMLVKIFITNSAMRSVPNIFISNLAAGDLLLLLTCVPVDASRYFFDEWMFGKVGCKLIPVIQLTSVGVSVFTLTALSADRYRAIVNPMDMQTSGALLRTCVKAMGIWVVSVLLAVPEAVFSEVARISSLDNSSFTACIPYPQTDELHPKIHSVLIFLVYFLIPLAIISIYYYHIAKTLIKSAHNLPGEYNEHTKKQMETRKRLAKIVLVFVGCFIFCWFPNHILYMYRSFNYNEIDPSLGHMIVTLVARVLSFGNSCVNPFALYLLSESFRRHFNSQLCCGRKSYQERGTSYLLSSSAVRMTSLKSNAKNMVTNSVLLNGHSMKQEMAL
As to the kind of experiment: BB1 binding assay ([125I][Tyr4]bombesin displacement, CHO-K1 membranes). As to the method: as §1, §2

[1] abbreviates: Table 3, N-acyl derivatives of Intermediate III-7.
Where [2] appears, read: second 'TABLE 4', N-terminal urethane derivatives of Intermediate III-7.

Read-outs that look alike come from different tables or passages of the source.

T1 sequence (P30550 whole entry): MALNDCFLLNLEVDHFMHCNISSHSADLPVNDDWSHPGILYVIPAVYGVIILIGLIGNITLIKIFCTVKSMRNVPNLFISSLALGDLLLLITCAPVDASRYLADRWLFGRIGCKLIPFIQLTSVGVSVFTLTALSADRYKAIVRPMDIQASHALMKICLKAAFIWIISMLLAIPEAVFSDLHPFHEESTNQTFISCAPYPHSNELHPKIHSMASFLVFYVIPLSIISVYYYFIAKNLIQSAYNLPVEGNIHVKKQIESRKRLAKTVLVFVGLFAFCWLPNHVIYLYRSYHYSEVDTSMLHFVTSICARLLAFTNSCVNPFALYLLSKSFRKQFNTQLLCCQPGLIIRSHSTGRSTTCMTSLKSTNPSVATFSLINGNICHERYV

On to `C[C@@](Cc1c[nH]c2ccccc12)(NC(=O)Cc1cccc(O)c1)C(=O)NCC1(c2ccccn2)CCCCC1` [Example 53, (S)-2-[2-(3-Hydroxy-phenyl)-ethanoylamino]-3-(1H-indol-3-yl)-2-methyl-N-(1-pyridin-2-yl-cyclohexylmethyl)-propionamide], for which the IC50 at human GRP receptor (BB2) (setting [1]) is above 10000 nM; on human NMB receptor (BB1) (setting [1]), 1440 nM.
With `C[C@@](Cc1c[nH]c2ccccc12)(NCCc1ccccc1)C(=O)NCC1(c2ccccn2)CCCCC1` [Example 25, (S)-3-(1H-Indol-3-yl)-2-methyl-2-phenylethylamino-N-(1-pyridin-2-yl-cyclohexylmethyl)-propionamide], the Ki at human GRP receptor (BB2) (Table 1, human GRP receptor binding affinity, Ki from IC50 by Cheng-Prusoff, read-out: GRP Kj) was 2620 nM; on human NMB receptor (BB1) (Table 1, human NMB receptor binding affinity, Ki from IC50 by Cheng-Prusoff, read-out: NMB Ki), 616 nM.
As to `C[C@@](Cc1c[nH]c2ccccc12)(NS(=O)(=O)Cc1ccccc1)C(=O)NCC1(c2ccccn2)CCCCC1` [Example 111, (S)-3-(1H-indol-3-yl)-2-methyl-2-phenylmethanesulfonylamino-N-(1-pyridin-2-yl-cyclohexylmethyl)-propionamide], the concentration for half-maximal inhibition (IC50) on human GRP receptor (BB2) is above 10000 nM; at human NMB receptor (BB1), 186 nM.
Consider `C[C@@](Cc1c[nH]c2ccccc12)(NS(=O)(=O)c1ccccc1-c1ccccc1)C(=O)NCC1(c2ccccn2)CCCCC1` [Example 154, (S)-2-(biphenyl-2-sulfonylamino)-3-(1H-indol-3-yl)-2-methyl-N-(1-pyridin-2-yl-cyclohexylmethyl)-propionamide], for which the results for the IC50 on human GRP receptor (BB2) and on human NMB receptor (BB1) were above 10000 nM and 166 nM, respectively.
`Cc1ccc(COC(=O)N[C@@](C)(Cc2c[nH]c3ccccc23)C(=O)NCC2(c3ccccn3)CCCCC2)cc1` [Example 108, {(S)-2-(1H-Indol-3-yl)-1-methyl-1-[(1-pyridin-2-yl-cyclohexylmethyl)-carbamoyl]-ethyl}-carbamic acid 4-methyl-benzyl ester]: the IC50 on human GRP receptor (BB2) (setting [2]) is above 10000 nM; at human NMB receptor (BB1) (setting [2]), 1080 nM.
Consider `C[C@@](Cc1c[nH]c2ccccc12)(NC(=O)c1ccc(Cl)cc1)C(=O)NCC1(c2ccccn2)CCCCC1` [Example 34, 4-Chloro-N—{(S)-2-(1H-indol-3-yl)-1-methyl-1-[(1-pyridin-2-yl-cyclohexyl-methyl)-carbamoyl]-ethyl}-benzamide], for which the 50% inhibitory concentration (IC50) at human GRP receptor (BB2) (setting [1]) is above 10000 nM; on human NMB receptor (BB1) (setting [1]), 1350 nM.
On to `C[C@@](Cc1c[nH]c2ccccc12)(NC(=O)Cc1ccc(O)cc1)C(=O)NCC1(c2ccccn2)CCCCC1` [Example 52, (S)-2-[2-(4-Hydroxy-phenyl)-ethanoylamino]-3-(1H-indol-3-yl)-2-methyl-N-(1-pyridin-2-yl-cyclohexylmethyl)-propionamide], for which the IC50 was above 10000 nM at human GRP receptor (BB2) (setting [1]) and 3130 nM on human NMB receptor (BB1) (setting [1]).
In the case of `Cc1cccc(COC(=O)N[C@@](C)(Cc2c[nH]c3ccccc23)C(=O)NCC2(c3ccccn3)CCCCC2)c1` [Example 105, {(S)-2-(1H-Indol-3-yl)-1-methyl-1-[(1-pyridin-2-yl-cyclohexylmethyl)-carbamoyl]-ethyl}-carbamic acid 3-methyl-benzyl ester], the 50% inhibitory concentration (IC50) at human GRP receptor (BB2) (setting [2]) is above 10000 nM; at human NMB receptor (BB1) (setting [2]), 841 nM.
The matching figures for `C[C@@](Cc1c[nH]c2ccccc12)(NC(=O)OCc1ccc2ccccc2c1)C(=O)NCC1(c2ccccn2)CCCCC1` [Example 89, {(S)-2-(1H-Indol-3-yl)-1-methyl-1-[(1-pyridin-2-yl-cyclohexylmethyl)-carbamoyl]-ethyl}-carbamic acid naphthalen-2-ylmethyl ester]: above 10000 nM and 1000 nM.
`C[C@@](Cc1c[nH]c2ccccc12)(NC(=O)c1cccc2cc[nH]c12)C(=O)NCC1(c2ccccn2)CCCCC1` [Example 69, 1H-Indole-7-carboxylic acid {(S)-2-(1H-indol-3-yl)-1-methyl-1-[(1-pyridin-2-yl-cyclohexylmethyl)-carbamoyl]-ethyl}-amide]: the IC50 at human GRP receptor (BB2) (setting [1]) is above 10000 nM; on human NMB receptor (BB1) (setting [1]), 1370 nM.
Take `Cn1c(C(=O)N[C@@](C)(Cc2c[nH]c3ccccc23)C(=O)NCC2(c3ccccn3)CCCCC2)cc2ccccc21` [Example 70, 1-Methyl-1H-indole-2-carboxylic acid {(S)-2-(1H-indol-3-yl)-1-methyl-1-[(1-pyridin-2-yl-cyclohexylmethyl)-carbamoyl]-ethyl}-amide]: the 50% inhibitory concentration (IC50) on human GRP receptor (BB2) (setting [1]) was above 10000 nM; on human NMB receptor (BB1) (setting [1]), 1230 nM.
The corresponding values for `COc1ccccc1C(=O)N[C@@](C)(Cc1c[nH]c2ccccc12)C(=O)NCC1(c2ccccn2)CCCCC1` [Example 46, N—{(S)-2-(1H-Indol-3-yl)-1-methyl-1-[(1-pyridin-2-yl-cyclohexylmethyl)-carbamoyl]-ethyl}-2-methoxy-benzamide] are above 10000 nM and 2560 nM.
As to `Cc1ccc(Oc2ccccc2S(=O)(=O)N[C@@](C)(Cc2c[nH]c3ccccc23)C(=O)NCC2(c3ccccn3)CCCCC2)cc1` [Example 153, (S)-3-(1H-indol-3-yl)-2-methyl-N-(1-pyridin-2-yl-cyclohexylmethyl)-2-(2-p-tolyloxy-benzenesulfonylamino)-propionamide], the IC50 is above 10000 nM at human GRP receptor (BB2) and 90 nM at human NMB receptor (BB1).
With “(S)-3-(1H-Indol-3-yl)-2-methyl-N-(1-pyridin-2-yl-cyclohexylmethyl)-2-(2-p-tolyl-ethanoylamino)-propionamide [Example 51]”, the figures for the IC50 at human GRP receptor (BB2) (setting [1]) and on human NMB receptor (BB1) (setting [1]) were above 10000 nM and 944 nM, respectively.
As to `Cc1ccc(C(=O)N[C@@](C)(Cc2c[nH]c3ccccc23)C(=O)NCC2(c3ccccn3)CCCCC2)cc1` [Example 33, N—{(S)-2-(1H-Indol-3-yl)-1-methyl-1-[(1-pyridin-2-yl-cyclohexylmethyl)-carbamoyl]-ethyl}-4-methyl-benzamide], on human GRP receptor (BB2) (setting [1]), the IC50 was above 10000 nM.
Consider `C[C@@](Cc1c[nH]c2ccccc12)(NC(=O)c1ccccc1)C(=O)NCC1(c2ccccn2)CCCCC1` [Example 32, N—{(S)-2-(1H-Indol-3-yl)-1-methyl-1-[(1-pyridin-2-yl-cyclohexylmethyl)-carbamoyl]-ethyl}-benzamide], for which the IC50 on human GRP receptor (BB2) (setting [1]) was above 10000 nM.
The compound “Dimethylamino-N—{(S)-2-(1H-indol-3-yl)-1-methyl-1-[(1-pyridin-2-yl-cyclohexyl-methyl)-carbamoyl]-ethyl}-benzamide [Example 42]” registered an IC50 on human GRP receptor (BB2) (setting [1]) above 10000 nM.
Turning to `C[C@@](Cc1c[nH]c2ccccc12)(NC(=O)OCc1ccc(Cl)cc1Cl)C(=O)NCC1(c2ccccn2)CCCCC1` [Example 104, {(S)-2-(1H-Indol-3-y1)-1-methyl-1-[(1-pyridin-2-yl-cyclohexylmethyl)-carbamoyl]-ethyl}-carbamic acid 2,4-dichloro-benzyl ester], the IC50 on human NMB receptor (BB1) (setting [2]) was 450 nM.
Turning to `C[C@@](Cc1c[nH]c2ccccc12)(NS(=O)(=O)c1ccc(Cl)c(C(F)(F)F)c1)C(=O)NCC1(c2ccccn2)CCCCC1` [Example 166], the IC50 on human NMB receptor (BB1) stood at 627 nM.
`C[C@@](Cc1c[nH]c2ccccc12)(NS(=O)(=O)c1c(Cl)cc(Cl)cc1Cl)C(=O)NCC1(c2ccccn2)CCCCC1` [Example 148] showed an IC50 on human NMB receptor (BB1) of 215 nM.
Turning to `C[C@@](Cc1c[nH]c2ccccc12)(NS(=O)(=O)c1ccc(C#N)cc1)C(=O)NCC1(c2ccccn2)CCCCC1` [Example 133], the IC50 at human NMB receptor (BB1) stood at 766 nM. This IC50 is about 3.6-fold higher than that of the compound before.
On the same count and under the same terms, the same measure for `C[C@@](Cc1c[nH]c2ccccc12)(NS(=O)(=O)c1cccc2nsnc12)C(=O)NCC1(c2ccccn2)CCCCC1` [Example 137]: 256 nM.
For `CC(Cc1c[nH]c2ccccc12)(NS(=O)(=O)c1cc(Cl)sc1Cl)C(=O)NCC1(c2ccccn2)CCCCC1` (centres unmarked) [Example 157], the IC50 on human GRP receptor (BB2) is above 10000 nM.
At human NMB receptor (BB1), `Cn1cnc(S(=O)(=O)N[C@@](C)(Cc2c[nH]c3ccccc23)C(=O)NCC2(c3ccccn3)CCCCC2)c1` [Example 138] came in with an IC50 of 3670 nM.
`C[C@@](Cc1c[nH]c2ccccc12)(NC(=O)c1cnc2ccccc2n1)C(=O)NCC1(c2ccccn2)CCCCC1` [Example 78, Quinoxaline-2-carboxyiic acid {(S)-2-(1H-indol-3-yl)-1-methyl-1-[(1-pyridin-2-yl-cyclohexylmethyl)-carbamoyl]-ethyl}-amide] came in with an IC50 at human NMB receptor (BB1) (setting [1]) of 1420 nM. This counts as single-digit micromolar.
Consider `C[C@@](Cc1c[nH]c2ccccc12)(NS(=O)(=O)c1ccccc1C(F)(F)F)C(=O)NCC1(c2ccccn2)CCCCC1` [Example 129, (S)-3-(1H-indol-3-yl)-2-methyl-N-(1-pyridin-2-yl-cyclohexylmethyl)-2-(2-trifluoromethyl-benzenesulfonylamino)-propionamide], for which the half-inhibitory concentration (IC50) at human NMB receptor (BB1) stood at 134 nM.
At human NMB receptor (BB1), `C[C@@](Cc1c[nH]c2ccccc12)(NS(=O)(=O)c1cc([N+](=O)[O-])ccc1Cl)C(=O)NCC1(c2ccccn2)CCCCC1` [Example 147] yielded an IC50 of 374 nM. This IC50 lies about 2.8-fold higher than the previous one.
